Source: ChEMBL document CHEMBL3734751, “Discovery of novel, potent and low-toxicity angiotensin II receptor type 1 (AT1) blockers: Design, synthesis and biological evaluation of 6-substituted aminocarbonyl benzimidazoles with a chiral center” (Eur J Med Chem, 2015)
Where a chain is given by its changes, count along the chain named. The source made the active and inactive calls. No cut-off for these calls is given here.

Assays:
[1] = test system: Mus musculus; experiment: Renal toxicity in Kunming mouse assessed as serum creatinin level at 0.5 g/kg by automatic biochemical analyser (reference value: 13.78 +/- 2.64 umol/L); type: organism-based; conditions: in vivo, 500 mg/kg
[2] = Mutagenicity in Kunming mouse bone marrow cells assessed as micronucleated polychromatic erythrocytes level at 2 g/kg by May-Grunwald-Giemsan staining-based microscopic analysis (reference value: 3.2 +/- 1.62 ); type: toxicity, cell-based, Bone marrow cell; conditions: in vivo, 2000 mg/kg
[3] = test system: Mus musculus; experiment: Renal toxicity in Kunming mouse assessed as serum creatinin level at 1 g/kg by automatic biochemical analyser (reference value: 13.78 +/- 2.64 umol/L); type: organism-based; conditions: in vivo, 1000 mg/kg
[4] = Volume of distribution at steady state in Sprague-Dawley rat at 3 mg/kg, iv by LC-MS/MS; type: ADME, organism-based; conditions: in vivo, read-out: Vdss
[5] = Toxicity in Kunming mouse at 4 g/kg, po assessed as mortality after 2 weeks; type: organism-based; conditions: in vivo, 4000 mg/kg
[6] = test system: Mus musculus; experiment: Hepatotoxicity in Kunming mouse assessed as serum ALT level at 2 g/kg by automatic biochemical analyser (reference value: 44.33 +/- 6.50 U/T); type: toxicity, organism-based; conditions: in vivo, 2000 mg/kg
[7] = test system: Mus musculus; experiment: Hepatotoxicity in Kunming mouse assessed as serum AST level at 1 g/kg by automatic biochemical analyser (reference value: 133.44 +/- 25.05 U/T); type: toxicity, organism-based; conditions: in vivo, 1000 mg/kg
[8] = test system: Mus musculus; experiment: Hepatotoxicity in Kunming mouse assessed as serum ALT level at 1 g/kg by automatic biochemical analyser (reference value: 44.33 +/- 6.50 U/T); type: toxicity, organism-based; conditions: in vivo, 1000 mg/kg
[9] = Tmax in Sprague-Dawley rat at 30 mg/kg, po by LC-MS/MS; type: ADME, organism-based; conditions: in vivo
[10] = test system: Rattus norvegicus; experiment: Antihypertensive activity in spontaneously hypertensive rat model assessed as decrease in heart rate at 30 mg/kg, po administered daily for 14 days and measured after 2 days of drug withdrawal by tail-cuff plethysmography; type: functional, organism-based
[11] = test system: Mus musculus; experiment: Renal toxicity in Kunming mouse assessed as serum urea level at 1 g/kg by automatic biochemical analyser (reference value: 9.95 +/- 1.39 mmol); type: organism-based; conditions: in vivo, 1000 mg/kg
[12] = test system: Mus musculus; experiment: Renal toxicity in Kunming mouse assessed as serum urea level at 0.5 g/kg by automatic biochemical analyser (reference value: 9.95 +/- 1.39 mmol); type: organism-based; conditions: in vivo, 500 mg/kg
[13] = Mutagenicity in Kunming mouse bone marrow cells assessed as micronucleated polychromatic erythrocytes level at 1 g/kg by May-Grunwald-Giemsa staining-based microscopic analysis (reference value: 3.2 +/- 1.62 ); type: toxicity, cell-based, Bone marrow cell; conditions: in vivo, 1000 mg/kg
[14] = Toxicity in Kunming mouse at 3 g/kg, po assessed as mortality after 2 weeks; type: organism-based; conditions: in vivo, 3000 mg/kg
[15] = Oral bioavailability in Sprague-Dawley rat at 30 mg/kg, by LC-MS/MS; type: ADME, organism-based; conditions: in vivo
[16] = test system: Rattus norvegicus; experiment: Antihypertensive activity in po dosed spontaneously hypertensive rat assessed as decrease in mean blood pressure by tail-cuff plethysmography; type: functional, organism-based
[17] = test system: Mus musculus; experiment: Hepatotoxicity in Kunming mouse assessed as serum AST level at 0.5 g/kg by automatic biochemical analyser (reference value: 133.44 +/- 25.05 U/T); type: toxicity, organism-based; conditions: in vivo, 500 mg/kg
[18] = Toxicity in Kunming mouse at 2 g/kg, po assessed as mortality after 2 weeks; type: organism-based; conditions: in vivo, 2000 mg/kg
[19] = target: T1, Type-1 angiotensin II receptor (Homo sapiens, UniProt P30556); experiment: Displacement of [125I]Sar1Ile8-Ang2 from human AT1 receptor expressed in CHO-K1 cell membranes after 180 mins
T1 sequence (P30556 whole entry): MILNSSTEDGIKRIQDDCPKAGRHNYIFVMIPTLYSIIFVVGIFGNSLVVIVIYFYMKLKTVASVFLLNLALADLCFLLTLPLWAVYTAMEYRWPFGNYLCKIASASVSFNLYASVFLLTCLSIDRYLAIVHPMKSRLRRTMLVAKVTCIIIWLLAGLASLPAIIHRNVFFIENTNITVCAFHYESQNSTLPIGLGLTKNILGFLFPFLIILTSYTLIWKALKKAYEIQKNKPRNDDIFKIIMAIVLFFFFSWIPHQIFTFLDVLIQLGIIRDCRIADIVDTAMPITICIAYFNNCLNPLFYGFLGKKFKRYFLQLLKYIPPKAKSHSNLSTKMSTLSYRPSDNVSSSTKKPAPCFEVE

[20] = test system: Mus musculus; experiment: Renal toxicity in Kunming mouse assessed as serum creatinin level at 2 g/kg by automatic biochemical analyser (reference value: 13.78 +/- 2.64 umol/L); type: organism-based; conditions: in vivo, 2000 mg/kg
[21] = Toxicity in Kunming mouse at 5 g/kg, po assessed as mortality after 2 weeks; type: organism-based; conditions: in vivo, 5000 mg/kg
[22] = target: T2, Type-1 angiotensin II receptor (Oryctolagus cuniculus, UniProt P34976); experiment: Antagonist activity against AT1 receptor in Japanese White rabbit aortic strips assessed as reduction in angiotension-2-induced contractile response after 60 mins by Schild's plot analysis; conditions: read-out: pA2 (converted)
T2 sequence (P34976 whole entry): T1 sequence (P30556 whole entry) with I2M, V49A, I254V, I270V, R272H, R311K, T349S, A353V

[23] = Toxicity in orally dosed Kunming mouse assessed as mortality after 2 weeks; type: organism-based; conditions: in vivo, po
[24] = test system: Mus musculus; experiment: Hepatotoxicity in Kunming mouse assessed as serum ALT level at 0.5 g/kg by automatic biochemical analyser (reference value: 44.33 +/- 6.50 U/T); type: toxicity, organism-based; conditions: in vivo, 500 mg/kg
[25] = test system: Mus musculus; experiment: Renal toxicity in Kunming mouse assessed as serum urea level at 2 g/kg by automatic biochemical analyser (reference value: 9.95 +/- 1.39 mmol); type: organism-based; conditions: in vivo, 2000 mg/kg
[26] = test system: Rattus norvegicus; experiment: Antihypertensive activity in spontaneously hypertensive rat model assessed as decrease in heart rate at 30 mg/kg, po administered daily for 14 days by tail-cuff plethysmography; type: functional, organism-based
[27] = Mutagenicity in Kunming mouse bone marrow cells assessed as micronucleated polychromatic erythrocytes level at 0.5 g/kg by May-Grunwald-Giemsa staining-based microscopic analysis (reference value: 3.2 +/- 1.62 ); type: toxicity, cell-based, Bone marrow cell; conditions: in vivo, 500 mg/kg
[28] = test system: Rattus norvegicus; experiment: Antihypertensive activity in spontaneously hypertensive rat model assessed as decrease in systolic and diastolic blood pressure at 30 mg/kg, po administered daily for 14 days and measured after 2 days of drug withdrawal by tail-cuff plethysmography; type: functional, organism-based
[29] = Terminal half-life in Sprague-Dawley rat at 3 mg/kg, iv by LC-MS/MS; type: ADME, organism-based; conditions: in vivo, read-out: beta t1/2 (converted)
[30] = Mutagenicity in Kunming mouse bone marrow cells assessed as ratio of polychromatic erythrocyte level to norchromatic erythrocyte level at 2 g/kg by May-Grunwald-Giemsa staining-based microscopic analysis (reference value: 1.32 +/- 0.22 ); type: toxicity, cell-based, Bone marrow cell; conditions: in vivo, 2000 mg/kg
[31] = Terminal half-life in Sprague-Dawley rat at 30 mg/kg, po by LC-MS/MS; type: ADME, organism-based; conditions: in vivo, read-out: beta t1/2 (converted)
[32] = AUC in Sprague-Dawley rat at 30 mg/kg, po by LC-MS/MS; type: ADME, organism-based; conditions: in vivo
[33] = Cmax in Sprague-Dawley rat at 30 mg/kg, po by LC-MS/MS; type: ADME, organism-based; set-up: dose 30 mg/kg, route oral; conditions: in vivo
[34] = test system: Rattus norvegicus; experiment: Antihypertensive activity in spontaneously hypertensive rat model assessed as decrease in systolic and diastolic blood pressure at 30 mg/kg, po administered daily for 14 days by tail-cuff plethysmography; type: functional, organism-based
[35] = Mutagenicity in Kunming mouse bone marrow cells assessed as ratio of polychromatic erythrocyte level to norchromatic erythrocyte level at 1 g/kg by May-Grunwald-Giemsa staining-based microscopic analysis (reference value: 1.32 +/- 0.22 ); type: toxicity, cell-based, Bone marrow cell; conditions: in vivo, 1000 mg/kg
[36] = test system: Mus musculus; experiment: Hepatotoxicity in Kunming mouse assessed as serum AST level at 2 g/kg by automatic biochemical analyser (reference value: 133.44 +/- […] U/T); type: toxicity, organism-based; conditions: in vivo, 2000 mg/kg
[37] = test system: Rattus norvegicus; experiment: AUC in Sprague-Dawley rat at 3 mg/kg, iv by LC-MS/MS; type: ADME, organism-based; conditions: in vivo
[38] = Mutagenicity in Kunming mouse bone marrow cells assessed as ratio of polychromatic erythrocyte level to norchromatic erythrocyte level at 0.5 g/kg by May-Grunwald-Giemsa staining-based microscopic analysis (reference value: 1.32 +/- 0.22 ); type: toxicity, cell-based, Bone marrow cell; conditions: in vivo, 500 mg/kg

SMILES: CCCc1nc2c(C)cc(C(=O)NC[C@H](C)c3ccccc3)cc2n1Cc1ccc(-c2ccccc2-c2nnn[nH]2)cc1
- Activity [1]: 10.3 µmol/L
- Activity [2]: 4.3
- Activity [3]: 8.3 µmol/L
- Vd [4]: 11 L/kg
- mortality at 336 h [5]: 50%
- Activity [6]: 91.4 U/L
- Activity [7]: 141 U/L
- Activity [8]: 52.6 U/L
- Tmax [9]: 0.75 h
- Activity [10]: Active
- Activity [11]: 10 mM
- Activity [12]: 8.71 mM
- Activity [13]: 3.8
- mortality at 336 h [14]: 30%
- bioavailability [15]: 42%
- Activity [16]: Dose-dependent effect
- Activity [17]: 126 U/L
- mortality at 336 h [18]: 0%
- IC50 [19]: 1.1 nM
- Activity [20]: 6.14 µmol/L
- mortality at 336 h [21]: 90%
- Kb [22]: 1.78 nM
- LD50 at 336 h [23]: 3640 mg/kg
- Activity [24]: 42.7 U/L
- Activity [25]: 11.2 mM
- Activity [26]: Active
- Activity [27]: 3
- Activity [28]: Active
- half-life [29]: 12.6 h
- Ratio [30]: 1.64
- half-life [31]: 13 h
- AUC [32]: 51500 ng·h/mL
- Cmax [33]: 14600 ng/mL
- Activity [34]: Active
- Ratio [35]: 1.28
- Activity [36]: 217 U/L
- AUC [37]: 12200 ng·h/mL
- Ratio [38]: 1.34
